Data taken from PubChem BioAssay AID1320 (NMMLSC, 2008).
Calls of active or inactive are those of the source. How the calls were made is not given here.

Target: Bcl-2-related protein A1 (Homo sapiens) (UniProt Q16548)
Test: Bfl-1/Bim complex disruptors – biochemical, multiplexed, bead-based flow cytometry, dose response (AID 1320); on percent span (inhibition): test concentration not given here
Details: Bim peptide-Bfl-1 binding, fluorescence; for percent span (inhibition): stronger effect = higher value

Chain of Bcl-2-related protein A1 (Homo sapiens) (Q16548 whole entry, looked up): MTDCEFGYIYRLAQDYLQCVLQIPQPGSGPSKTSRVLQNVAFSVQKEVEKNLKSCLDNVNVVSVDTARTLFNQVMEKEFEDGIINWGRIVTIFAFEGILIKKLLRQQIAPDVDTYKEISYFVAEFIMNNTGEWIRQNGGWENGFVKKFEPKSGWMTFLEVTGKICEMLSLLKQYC

Compound	percent span (inhibition)	EC50
CCN(CC)c1ccc(NC(=O)c2ccc(=O)[nH]c2)cc1S(=O)(=O)Nc1ccccc1OC	inactive	
COC(=O)c1ccc(-n2nnnc2SCC(=O)Nc2cc(OC)ccc2OC)cc1	inactive	
CC1CCN(C2(O)C(=O)Nc3ccc(Br)cc32)CC1 (centres undefined)	inactive	
Cc1cc(-c2nn(-c3ccccc3)cc2/C=C2\SC(N)=NC2=O)ccc1OC(C)C	inactive	
CNc1ccccc(C(=O)/C=C/c2ccccc2OC)c1=O	inactive	
O=C(C1=C(Nc2ccccc2)c2ccccc2S(=O)(=O)N1)c1ccccc1	inactive	
Cc1ccc(C(=O)CCC(=O)Nc2ccc(Cl)c(S(=O)(=O)Nc3cccc(Cl)c3)c2)cc1	inactive	
COc1ccc(NC(=O)C2=C(C)NC(=O)NC2c2cccc(OC)c2OC)c(OC)c1 (centres undefined)	inactive	
O=C(COc1ccccc1)N1CCN(c2ncnc3c2cnn3-c2ccccc2)CC1	inactive	
COc1ccc(OC)c(NC(=O)CCCN2C(=S)NC(C)(C)CC2C)c1 (centres undefined)	inactive	
COC(=O)c1cc(OC)c(OC)cc1NC(=O)Nc1cccc(C(C)=O)c1	inactive	
CCCCc1ccc(NC(=S)NCc2ccc(OC)cc2)cc1	inactive	
COc1ccc(C(=S)N2CCCCCC2)cc1	inactive	
CCOC(=O)CCCNC(=O)c1cncc(O)c1	inactive	
Cc1cc(N2CCN(C)CC2)nc2ccc(NC(=S)N3CCN(c4ccc(F)cc4)CC3)cc12	inactive	
c1cncc(-c2nnc3n2N=C(c2cccs2)CS3)c1	inactive	
Clc1ccc2c(N/N=C/c3cccc(Br)c3)ccnc2c1	inactive	
Cc1ccc(NN2C(=O)C=CC2=O)cc1	inactive	
CC1CC2=C(NC(=S)NC2c2cccc(F)c2)/C(=C/c2cccc(F)c2)C1 (centres undefined)		inactive
CC1Nc2ccccc2C(=O)N1NS(=O)(=O)c1ccccc1 (centres undefined)	inactive	
O=C1/C(=C/c2cccs2)Sc2ccccc21	inactive	
N#CC(C#N)=C1C=CC=CN1/C(=C\c1ccco1)C(=O)c1ccccc1	inactive	
Cc1sc(NC(=O)Cn2cnnn2)nc1-c1ccc(Cl)cc1	inactive	

Compound	percent span (inhibition)	EC50
COc1ccc(CN(CC(=O)NC2CCCC2)C(=O)CCC(=O)Nc2cc(C)on2)cc1	inactive	
CCc1cccc(NC(=O)COc2ccccc2)c1	inactive	
COc1ccc(S(=O)(=O)NCCOc2cccc3cccnc23)cc1OC	inactive	
COC(=O)c1c(NC(=O)COc2ncnc3ccccc23)sc(C)c1C	inactive	
COc1ccc(CN(C)CC(=O)NC(C)c2ccccc2)c(OC)c1 (centres undefined)	inactive	
C#CCOCCOCCOCCNc1nc(N2CCN(C(=O)[C@H](CCCCN)n3cc(CCCC)nn3)CC2)nc(N2CCN(C(=O)[C@H](Cc3ccc(O)cc3)n3cc(CCO)nn3)CC2)n1	inactive	
Fc1cccc(Nc2nc(-c3ccncc3)nc3ccccc23)c1	inactive	
CC(C)C(=O)N1CCN(c2ccc([N+](=O)[O-])cc2Cl)CC1	inactive	
CCc1nn2cc(C(=O)c3cc(C)ccc3O)cnc2c1-c1ccc(F)cc1	inactive	
Cc1ccc(S(=O)(=O)NC(=O)COc2ccccc2C)cc1	inactive	
COc1ccc(NC(=O)/C(Cl)=C(/Cl)S(=O)Cc2ccccc2)cn1 (centres undefined)	inactive	
Cc1ccc(C(=O)N/N=C2/NC(=O)CC(C(=O)Nc3ccccc3)S2)cc1 (centres undefined)	inactive	
Cn1c(=O)[nH]c(=O)c2c1nc(N1CCOCC1)n2CCSc1nc2ccccc2[nH]1	inactive	
Cc1ccc(S(=O)(=O)N2CCCCC2)cc1NC(=O)COC(=O)c1ccccc1F	inactive	
CC1CC2=C(NC(=S)NC2c2ccccc2F)/C(=C/c2ccccc2F)C1 (centres undefined)	inactive	
COc1ccc(C(=O)Nc2ccc(NC(=O)c3cccs3)cc2)cc1Cl	inactive	
O=[N+]([O-])c1cccc(S(=O)(=O)NCC2CCCO2)c1 (centres undefined)	inactive	
COc1cc2[nH]c(=S)nc(NCCc3ccc(S(N)(=O)=O)cc3)c2cc1OC	inactive	
CCc1cccc(CC)c1NC(=S)N1CCn2cccc2C1c1cccnc1 (centres undefined)	inactive	
O=C(/C=C/c1ccc(-c2ccccc2[N+](=O)[O-])o1)c1ccc(F)cc1	inactive	
CCOCCCn1c(N)c(C(=O)Nc2sc3c(c2C(=O)OC)CCCC3)c2nc3ccccc3nc21	inactive	
Cc1ccnc(SCc2cc(=O)c(OC(=O)c3ccc(Cl)c([N+](=O)[O-])c3)co2)n1	inactive	
O=C(/C=C\c1ccc(-c2ccccc2)o1)c1ccccc1	inactive	

Compound	percent span (inhibition)	EC50
COCCNC(=O)CN1CCC(NC(=O)Nc2ccccc2)CC1	inactive	
CN1C(=O)/C(=C/c2ccc(-c3ccccc3[N+](=O)[O-])o2)SC1=Nc1ccc(Cl)c(C(=O)O)c1	inactive	
CCc1ccc(/C=C/C(=O)c2cc(Br)ccc(=O)c2O)cc1	inactive	
CC(=O)Nc1ccc2nc(CN3CCN(CC(C)C)C(CCO)C3)ccc2c1 (centres undefined)	inactive	
Cc1ccc(Nc2nc(C)cs2)cc1	inactive	
CCN1CCN(c2ccc(NC(=O)c3ccc4c(c3)[nH]c(=O)n4Cc3ccc(OC)cc3)cc2)CC1	inactive	
OCCC1CN(Cc2nc3c(s2)CCCC3)CCN1Cc1ccsc1 (centres undefined)	inactive	
Cc1ccc(N=C2NC(=O)/C(=C/C=C/c3ccco3)S2)cc1	inactive	
Cc1cc(-c2csc(N)n2)c(C)n1C	inactive	
O=C1c2ccccc2-c2onc3ccc(NCc4ccco4)c1c23	inactive	
COc1ccc(CCNC(=O)c2cc(-c3ccccn3)nc3c(Cl)cccc23)cc1OC	inactive	
CS(=O)(=O)NN1C(=O)c2ccccc2NC1c1ccccc1 (centres undefined)	inactive	
O=C(O)c1ccccc1NSc1ccccc1[N+](=O)[O-]	inactive	
Cc1cc(C)nc(SCc2cc(=O)c(OC(=O)c3cccc([N+](=O)[O-])c3)co2)n1	inactive	
CCOc1ccccc1/C=N/NC(=O)CNC(=O)COc1ccccc1	inactive	
O=C(NNC(=O)C12CC3CC(CC(C3)C1)C2)c1ccco1	inactive	
CN1CCN(c2ccc(N)cc2)CC1	inactive	
Cc1ccc(-n2c(CSc3nc(C)cc(C)n3)nnc2SCC(=O)NCc2ccco2)cc1	inactive	
CC(/C=C/C(=O)c1ccc(C)cc1)=C\c1ccccc1	inactive	
CCN1CCN(c2cc(C)c3cc(NC(=S)N4CC(C)CC(C)C4)ccc3n2)CC1 (centres undefined)	inactive	
CCc1nnc(NC(=O)CSc2nnc(COc3ccc(C)cc3)n2-c2ccccc2)s1	inactive	
CCCCOc1ccc(Cc2c(Cl)nc(SC)nc2N2CCOCC2)cc1	inactive	
CCOc1ccccc1NC(=O)CSc1ccc2nnc(-c3cccnc3)n2n1	inactive	
